Earlier results, collected in patent US6121280A, “Azabicyclic rotomase inhibitors” (Pfizer Inc., priority 1999, dated 2000).

Tested on: neuronal cell line and culture models
Conditions: Lyons et al. 1994, Snyder et al. 1995

## C=CC[C@@H]1/C=C(\C)C[C@H](C)C[C@H](OC)[C@H]2O[C@@](O)(C(=O)C(=O)N3CCCC[C@H]3C(=O)O[C@H](/C(C)=C/[C@@H]3CC[C@@H](O)[C@H](OC)C3)[C@H](C)[C@@H](O)CC1=O)[C@H](C)C[C@@H]2OC [FK-506]
  neurite outgrowth in vitro: promoted neurite outgrowth
